# According to US5840303A, “Peptides for inducing cytotoxic T lymphocyte responses to hepatitis B virus” (The Scripps Research Foundation, priority 1995, dated 1998):
# Residues, ends and D or L forms follow the SMILES beside them.
# What was measured:
# [1] = system: HBV core specific CTL from PBMC of patients with acute hepatitis B; conditions: patient
# [2] = system: autologous target cells pulsed with peptide HBc11-27; assay: Immunodominance of the HBc11-27 CTL epitope in HLA-A2 positive subjects; type: cell-based, human; conditions: one of the four chronic patients
# Source text: To assess the immunodominance in the HLA-A2 haplotype of the CTL epitope(s) contained in peptide HBc11-27, eight additional subjects with self-limited acute hepatitis B infection, four patients with chronic active hepatitis B, and eight healthy subjects without evidence of previous exposure to HBV (all HLA-A2 positive) were repeatedly tested.
# Patient to patient variations in the pattern of response to the peptide were observed during the course of the illness. The cytolytic activity was generally detectable during the icteric phase when transaminase values were high; in some patients the response was long-lasting, being still detectable when GPT levels had already become normal, and in other subjects the lytic activity became undetectable 2 or 3 weeks after the transaminase peak when GPT levels were still slightly altered.
SMILES,cytotoxic activity of unstimulated PBMC against autologous B-LCL fed with peptide [1],cytotoxicity against the relevant peptide sequence [2]
CC(C)C[C@H](NC(=O)[C@@H](NC(=O)[C@H](CO)NC(=O)[C@@H](N)CC(C)C)[C@@H](C)O)C(=O)N1CCC[C@H]1C(=O)N[C@@H](CCC(=O)O)C(=O)N[C@H](C(=O)N[C@H](C(=O)N[C@H](C(=O)N[C@H](C(=O)N[C@@H](CCCNC(=N)N)C(=O)N[C@@H](CCCNC(=N)N)C(=O)N[C@@H](CCCNC(=N)N)C(=O)NCC(=O)N[C@@H](CCCNC(=N)N)C(=O)N[C@@H](CO)C(=O)O)C(C)C)C(C)C)[C@@H](C)O)[C@@H](C)O [140-155],No cytotoxic activity was observed,–
CC(C)C[C@H](NC(=O)[C@H](CC(C)C)NC(=O)[C@H](CCC(=O)O)NC(=O)[C@@H](NC(=O)[C@@H](NC(=O)[C@H](C)N)[C@@H](C)O)C(C)C)C(=O)N[C@@H](CO)C(=O)N[C@@H](Cc1ccccc1)C(=O)N[C@@H](CC(C)C)C(=O)N1CCC[C@H]1C(=O)N[C@@H](CO)C(=O)N[C@@H](CC(=O)O)C(=O)N[C@@H](Cc1ccccc1)C(=O)N[C@@H](Cc1ccccc1)C(=O)N1CCC[C@H]1C(=O)N[C@@H](CO)C(=O)N[C@H](C(=O)O)C(C)C [HBc11-27] (H-ATVELLSFLPSDFFPSV-OH),–,"detectable, though very low levels of cytotoxicity"
